Results on 5 compounds are retold here after patent publication US8962854B2, “Luminescent substrate for luciferase” (The University of Electro-Communications, priority 2011, dated 2015).

The conditions of test [1]: University of Tokyo luciferin derivative; cited from earlier work.
Test [2] has as its target firefly luciferase (Photinus pyralis, UniProt P08659). Description: Bioluminescent emission spectrum measurement. The test is classed as biochemical. The conditions noted are these: ATP-Mg. The method, then: In a 200 μL polystyrene tube, potassium phosphate buffer solution (0.5 M, pH 8.0, 20 μl), substrate solution (2.5 mM, 20 μl), enzyme solution (20 μl), to and ATP-Mg solution (10 mM, 40 μl) were mixed, and emission spectrum measurement was performed. An enzyme solution with a concentration of 17 μM was used. Enzymes with a concentration of 1.7 μM for the firefly luciferin and of 170 μM for the phenol-type luciferin, however, were used. The exposure time for emission spectrum measurement was 60 seconds. For the firefly luciferin, however, the time was five seconds.

The mark [3] stands for this setting: reaction with firefly luciferase, substrate solution 2.5 mM, enzyme solution 17 μM, pH 8.0, exposure 60 seconds.

Structures are written as SMILES.

Chain of firefly luciferase (P08659 whole entry): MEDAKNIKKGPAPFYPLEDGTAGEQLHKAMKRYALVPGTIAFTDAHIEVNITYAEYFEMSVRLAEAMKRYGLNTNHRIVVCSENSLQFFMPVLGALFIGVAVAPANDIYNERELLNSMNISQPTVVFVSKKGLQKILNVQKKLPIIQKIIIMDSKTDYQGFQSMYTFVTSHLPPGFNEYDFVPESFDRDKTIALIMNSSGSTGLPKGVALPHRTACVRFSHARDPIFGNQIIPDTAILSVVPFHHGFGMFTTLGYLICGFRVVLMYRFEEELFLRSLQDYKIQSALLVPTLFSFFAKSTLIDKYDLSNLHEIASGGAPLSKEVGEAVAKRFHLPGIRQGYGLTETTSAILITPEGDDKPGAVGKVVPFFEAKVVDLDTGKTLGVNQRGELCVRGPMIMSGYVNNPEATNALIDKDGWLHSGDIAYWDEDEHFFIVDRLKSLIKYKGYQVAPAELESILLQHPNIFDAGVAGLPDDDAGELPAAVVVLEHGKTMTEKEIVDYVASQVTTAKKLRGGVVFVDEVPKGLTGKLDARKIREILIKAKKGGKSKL

For the compound `Nc1ccc2nc(C3=N[C@@H](C(=O)O)CS3)sc2c1` [Aminoluciferin], the emission wavelength result in test [1] is recorded as “approximately 610 nm”.

The compound `C=CCc1c(O)ccc2nc(C3=N[C@@H](C(=O)O)CS3)sc12` [7-allyl-firefly luciferin 35, 7-allyl-firefly luciferin] gave an emission wavelength in test [2] (setting [3]) of 605 nm.

Regarding `O=C(O)C1CSC(c2nc3ccc(O)cc3s2)=N1` (stereo not drawn) [Firefly luciferin], in test [2] (firefly luciferin: enzyme 1.7 μM, exposure five seconds, pH 8.0), the emission wavelength came out at 565 nm.

Take `C=CCc1c(O)ccc2cc(/C=C/C3=NC(C(=O)O)CS3)ccc12` (stereo not drawn) [compound 21]: the emission wavelength result in test [2] (setting [3]) is on record as “approximately 690 nm”; in test [2] (reaction with firefly luciferase, substrate solution 2.5 mM, enzyme solution 17 μM, pH 8.0, exposure 60 seconds, listed as FIG. 2), 690 nm.

Consider `O=C(O)[C@H]1CSC(/C=C/c2ccc3cc(O)ccc3c2)=N1` [compound 39], for which the emission wavelength in test [2] (setting [3]) was determined as 660 nm.
